System: patients with symptomatic oHCM
Test: SEQUOIA-HCM: cardiopulmonary exercise testing (CPET), incl. by baseline beta blocker use
Type: in vivo, human
Text: The primary objective of this trial was to evaluate the effect of aficamten on exercise capacity in patients with symptomatic oHCM. The indicated endpoint was a change in peak oxygen uptake (pVO2) by cardiopulmonary exercise testing (CPET) from baseline to Week 24. A further secondary objective was to evaluate the effect of aficamten on exercise capacity, as determined by change in total workload during CPET from baseline to Week 24. A further exploratory objective of this trial was to evaluate the effect of aficamten on other CPET parameters, as determined by changes from baseline to Week 24 in: (1) ventilator efficiency (VE/VCO2 slope); (2) circulatory power (VO2× systolic BP); and (3) ventilator anaerobic threshold (VAT). Cardiopulmonary Exercise Testing (CPET). All patients underwent CPET with gas-exchange analysis and the methodology will be standardized across all participating sites, as described in the CPET manual. Testing included continuous ECG monitoring by trained personnel and was performed in an area that was equipped for cardiopulmonary resuscitation. Treadmill was the preferred modality for exercise testing. […] Exercise protocols for both modalities were provided in the CPET manual. Patients had to use the same testing modality for all exercise tests during the trial. Whenever possible, CPET was administered by the same trial personnel using the same equipment and performed after the other trial procedures on that visit day (including echocardiogram, KCCQ, EQ-5D-5L, CGI, PGI-C, NYHA class, SAQ-7, vital signs, ECG, blood sampling, IP administration). Patients naïve to exercise protocols were familiarized with the technique during screening. All CPET testing was symptom-limited and patients were strongly encouraged to achieve maximal exertion and an RER ≥1.05. The reason(s) for termination of sub-maximal exercise tests were documented. A test was identified as being maximal effort if the RER is ≥1.05. The Week 24 CPET was performed at approximately the same time of day (eg, morning, mid-day, afternoon) as the baseline CPET at screening, at a consistent time after the last dose of beta blocker and IP. Whenever possible, patients performed exercise testing between three and ten hours after taking beta blocking agents. CPET End Points. We looked at whether aficamten would improve a novel measure of integrated exercise performance that combines complementary measures previously independently related to oHCM prognosis, and that incorporates both submaximal and maximal exercise capacity. A primary outcome was the change from baseline to week 24 in integrated exercise performance, defined as the 2-component Z-score of pVO2 and ventilatory efficiency (VE/VCO2 slope). Response rates for achieving clinically meaningful thresholds for change in pVO2 and correlations with clinical measures of treatment effect (health status, echocardiographic, cardiac biomarkers) were also assessed. The primary analysis was the change from baseline to Week 24 in integrated exercise performance, normalized to a composite of Z-scores for pVO2 and VE/VCO2 slope to capture physiologic responses to maximal and submaximal exercise. The Z-score was derived by reversing the directionality of VE/VCO2 slope such that increases in both Z-score components indicate benefit and equal weights were used for each Z-score component. Secondary end points included assessments for changes from baseline to week 24 in CPET-derived measures during 2 phases of exercise performance: (1) peak exercise (pVO2, peak workload, peak metabolic equivalents [METS], peak circulatory power [VO2× systolic blood pressure], exercise duration, peak respiratory exchange ratio [RER], heart rate reserve, peak heart rate, O2 pulse at peak exercise, proportionate pulse pressure); and (2) during submaximal exercise (pre-anaerobic threshold VE/VCO2 slope, VE/VCO2 slope throughout exercise, ventilatory power, ventilatory anaerobic threshold, and aerobic efficiency). Beta Blocker Co-administration. […]

[1] = Aficamten arm, change baseline to week 24
[2] = Baseline Beta Blocker Use: No, Baseline
[3] = Baseline Beta Blocker Use: No, Week 24

SMILES: CCc1nc(-c2ccc3c(c2)CC[C@H]3NC(=O)c2cnn(C)c2)no1 [aficamten, (R)—N-(5-(5-ethyl-1,2,4-oxadiazol-3-yl)-2,3-dihydro-1H-inden-1-yl)-1-methyl-1H-pyrazole-4-carboxamide]
- Aerobic efficiency (Aficamten arm, Week 24): 8.6 mL/min/watt
- Exercise duration (Aficamten arm, Week 24): 12.4 min
- Heart rate reserve (Aficamten arm, Week 24): 66
- Integrated 2 component Z-score metric (Aficamten arm, Week 24): 0.16
- Peak circulatory power (Aficamten arm, Week 24): 3550 mmHg*mL/min/kg
- Peak heart rate (Aficamten arm, Week 24): 135 beats/min
- Peak respiratory exchange ratio (Aficamten arm, Week 24): 1.20
- Peak workload (Aficamten arm, Week 24): 134 watt
- Proportionate pulse pressure (peak) (Aficamten arm, Week 24): 0.51
- Proportionate pulse pressure (rest) (Aficamten arm, Week 24): 0.37
- Ventilatory anaerobic threshold (Aficamten arm, Week 24): 958 mL
- Ventilatory efficiency pre-anaerobic threshold (VE/VCO2 slope) (Aficamten arm, Week 24): 27.4
- Ventilatory efficiency throughout exercise (VE/VCO2 slope) (Aficamten arm, Week 24): 30.9
- Ventilatory power (Aficamten arm, Week 24): 5.9 mmHg
- pVO2 (Aficamten arm, Week 24): 20.2 mL/kg/min
- Aerobic efficiency, Abs. diff. [1]: 0.3 mL/min/watt
- Exercise duration, Abs. diff. [1]: 1.2 min
- Heart rate reserve, Abs. diff. [1]: 7
- Integrated 2 component Z-score metric, Abs. diff. [1]: +0.17±0.51
- O2 pulse at peak exercise, Abs. diff. [1]: 0.00 mL/beat
- Peak circulatory power, Abs. diff. [1]: 537 mmHg*mL/min/kg
- Peak heart rate, Abs. diff. [1]: 8 beats/min
- Peak respiratory exchange ratio, Abs. diff. [1]: 0.01
- Peak workload, Abs. diff. [1]: 14 watt
- Proportionate pulse pressure (peak), Abs. diff. [1]: 0.02
- Proportionate pulse pressure (rest), Abs. diff. [1]: −0.02
- Ventilatory anaerobic threshold, Abs. diff. [1]: 60 mL
- Ventilatory efficiency pre-anaerobic threshold (VE/VCO2 slope), Abs. diff. [1]: −1.9
- Ventilatory efficiency throughout exercise (VE/VCO2 slope), Abs. diff. [1]: −2.2
- Ventilatory power, Abs. diff. [1]: 0.8 mmHg
- pVO2, Abs. diff. [1]: 1.8 mL/kg/min
- Integrated 2 component Z-score metric, Abs. diff. (Aficamten arm, change baseline to week 24, listed as Aficamten): 0.17
- patients with Any Deterioration (small/moderate/large) in pVO2 (Aficamten, 24 weeks): (26.1%)
- patients with Any Deterioration (small/moderate/large) in pVO2, number (Aficamten, 24 weeks): 37
- patients with Any Improvement (small/moderate/large) in pVO2 (Aficamten, 24 weeks): (73.9%)
- patients with Any Improvement (small/moderate/large) in pVO2, number (Aficamten, 24 weeks): 105
- patients with Large Improvement in pVO2 (≥3.0 mL/kg/min) (Aficamten, 24 weeks): 32%
- patients with Large Improvement in pVO2 (≥3.0 mL/kg/min), number (Aficamten, 24 weeks): 46
- patients with Moderate/Large Improvement in pVO2 (≥1.5 mL/kg/min) (Aficamten, 24 weeks): (52.8%)
- patients with Moderate/Large Improvement in pVO2 (≥1.5 mL/kg/min), number (Aficamten, 24 weeks): 75
- patients with Large Improvement in pVO2 (≥3.0 mL/kg/min) (Aficamten, 24 weeks, listed as Aficamten): (32.4%)
- Change in Exercise Duration on CPET from Baseline to Week 24, LS Mean (SE) (Baseline Beta Blocker Use: No): 1.2 (0.26) minutes
- Change in Exercise Duration on CPET from Baseline to Week 24, LS Mean Diff vs. Placebo (SE) (Baseline Beta Blocker Use: No): 1.1 (0.38) minutes
- Change in Exercise Duration on CPET from Baseline to Week 24, Mean (SD) (Baseline Beta Blocker Use: No): 1.3 (2.34) minutes
- Change in Exercise Duration on CPET from Baseline to Week 24, Median (Baseline Beta Blocker Use: No): 1.1 min
- Change in peak METs from Baseline to Week 24, LS Mean (SE) (Baseline Beta Blocker Use: No): 0.62 (0.113) METs
- Change in peak METs from Baseline to Week 24, LS Mean Diff vs. Placebo (SE) (Baseline Beta Blocker Use: No): 0.55 (0.162) METs
- Change in peak METs from Baseline to Week 24, Mean (SD) (Baseline Beta Blocker Use: No): 0.65 (1.029) METs
- Change in peak METs from Baseline to Week 24, Median (Baseline Beta Blocker Use: No): 0.47 METs
- Exercise Duration on CPET, Baseline, Mean (SD) [2]: 11.0 (3.52) minutes
- Exercise Duration on CPET, Baseline, Median [2]: 10.3 min
- peak METs (pVO2/3.5 (mL/kg/min)) on CPET, Baseline, Mean (SD) [2]: 5.27 (1.314) METs
- peak METs (pVO2/3.5 (mL/kg/min)) on CPET, Baseline, Median [2]: 5.11 METs
- Exercise Duration on CPET, Week 24, Mean (SD) [3]: 12.2 (4.39) minutes
- Exercise Duration on CPET, Week 24, Median [3]: 11.3 min
- peak METs (pVO2/3.5 (mL/kg/min)) on CPET, Week 24, Mean (SD) [3]: 5.89 (1.481) METs

From patent US20250295639A1, “METHODS FOR TREATING HEART DISEASES” (Cytokinetics, Incorporated, priority 2024, published 2025)
